# pEC50: −log10 of the molar value.
# Target: Ras-related C3 botulinum toxin substrate 1 (Mus musculus, UniProt P63001)
# Experiment: blockers of fluorescent GTP loading onto wildtype Rac1 – biochemical, pyrazoline analogs, multiplex, flow cytometry, Ki, SAR follow-up (AID 2055)
# Conditions: inactive by the depositor's call
row,SMILES,pEC50
1,"FC(F)(F)c1ccccc1C1CC(c2ccc(Br)cc2)=NN1c1ccccc1 (stereo not drawn) [5-(4-bromophenyl)-2-phenyl-3-[2-(trifluoromethyl)phenyl]-3,4-dihydropyrazole]",4.52
2,"COc1ccccc1C1CC(c2ccccc2)=NN1c1ccc(S(N)(=O)=O)cc1 (stereo not drawn) [4-[3-(2-methoxyphenyl)-5-phenyl-3,4-dihydropyrazol-2-yl]benzenesulfonamide]",4.52
3,COc1ccc(C2=NN(c3ccccc3)C(c3ccccc3C(F)(F)F)C2)cc1 (stereo not drawn),4.52
4,"COc1ccc(C2=NN(c3cccc(F)c3)C(c3ccc(OC)cc3)C2)cc1 (stereo not drawn) [2-(3-fluorophenyl)-3,5-bis(4-methoxyphenyl)-3,4-dihydropyrazole]",4.52
5,O=[N+]([O-])c1cccc(C2C[C-](c3ccccc3)N=[N+]2c2ccccc2)c1 (stereo not drawn) [UNM-0000305857],4.52
6,Brc1ccc(N2N=C(c3ccccc3)CC2c2ccccc2)cc1 (stereo not drawn),5.02
7,"COc1cccc(C2CC(c3ccccc3)=NN2c2ccc(S(N)(=O)=O)cc2)c1 (stereo not drawn) [4-[3-(3-methoxyphenyl)-5-phenyl-3,4-dihydropyrazol-2-yl]benzenesulfonamide]",4.52
8,COc1ccc(C2CC(c3cccc(C)c3)=NN2c2ccc(S(N)(=O)=O)cc2)cc1 (stereo not drawn) [UNM-0000306153],4.52
9,COc1ccc(C2=NN(c3ccc(Cl)cc3)C(c3ccccc3F)C2)cc1 (stereo not drawn) [UNM-0000305863],4.52
10,O=[N+]([O-])c1ccc([N+]2=N[C-](c3ccccc3)CC2c2ccc(O)cc2)cc1 (stereo not drawn) [UNM-0000305838],4.52
11,CCc1ccc(C2=NN(c3ccc(S(N)(=O)=O)cc3)C(c3ccc(F)cc3)C2)cc1 (stereo not drawn),4.52
12,COc1ccc(-c2cc(-c3ccccc3)nn2-c2ccc(S(N)(=O)=O)cc2)cc1 [4-[5-(4-methoxyphenyl)-3-phenylpyrazol-1-yl]benzenesulfonamide],4.52
13,COc1ccc(C2CC(c3cccc(N(C)C)c3)=NN2c2ccc(S(N)(=O)=O)cc2)cc1 (stereo not drawn),4.52
14,COc1ccc(C2CC(c3ccccc3)=NN2c2ccc(Cl)c(C(=O)O)c2)cc1 (stereo not drawn),4.52
15,COc1ccc(C2CC(c3cccnc3)=NN2c2ccc(S(N)(=O)=O)cc2)cc1 (stereo not drawn),4.52
16,O=[N+]([O-])c1ccc([N+]2=N[C-](c3ccccc3)CC2c2ccccc2)cc1 (stereo not drawn),4.52
17,"COc1ccc(C2CC(c3cccc(OC)c3)=NN2c2ccc(S(N)(=O)=O)cc2)cc1 (stereo not drawn) [4-[5-(3-methoxyphenyl)-3-(4-methoxyphenyl)-3,4-dihydropyrazol-2-yl]benzenesulfonamide]",4.52
18,COc1ccc(C2CC(C(C)(C)C)=NN2c2ccc(S(N)(=O)=O)cc2)cc1 (stereo not drawn) [KUC103450N],4.52
19,Cc1cccc(C2CC(c3ccccc3)=NN2c2ccc(S(N)(=O)=O)cc2)c1 (stereo not drawn),4.52
20,"COc1ccc(C2=NN(c3ccc(Cl)c(Cl)c3)C(c3ccc(OC)cc3)C2)cc1 (stereo not drawn) [2-(3,4-dichlorophenyl)-3,5-bis(4-methoxyphenyl)-3,4-dihydropyrazole]",4.52
21,COc1ccc(C2CC(c3ccc(F)cc3)=NN2c2cccc(F)c2)cc1OC (stereo not drawn),7.57
22,COc1ccccc1C1CC(c2ccccc2)=NN1c1ccccc1 (stereo not drawn),4.52
23,NS(=O)(=O)c1ccc(N2N=C(c3ccccc3)CC2c2cccc(Br)c2)cc1 (stereo not drawn) [UNM-0000306147],4.52

# From BindingDB's records for doi:10.7270/Q2959G0B (Nmmlsc, 2009)
